From PubChem BioAssay AID720588 (Broad Institute, 2013)
Calls of active or inactive are those of the source.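 How the source made its calls: active means fitted curve falls past a set limit of signal loss at no more than twice the top dose; inconclusive means flat fit between 30 and 70% signal loss, or poor fit; inactive means signal rise, flat within 30%, or crossing too high.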

Assay: HEK293T cell cytotoxicity, dose response, cytotoxicity control, CellTiter-Glo luminescence, cherry-pick, set 3 (AID 720588)
Settings: HEK293T viability, CellTiter-Glo ATP luminescence, 72 h

| SMILES | activity change, negative = cytotoxicity (at 26 µM (top of the series)) | activity change, negative = cytotoxicity (at 23.5 µM (top of the series)) |
| --- | --- | --- |
| OCC1OC(n2cnc3c(NCc4ccco4)ncnc32)C(O)C1O (configuration not stated) | -35.2% (inactive) | – |
| COc1ccc(N=C2C(=O)Nc3ccc(C)c(Br)c32)cc1 | -21.9% (inactive) | – |
| COCCOC(=O)N1C(=O)[C@@]2(c3cc(C#CCC(C(=O)OC)C(=O)OC)ccc31)[C@H](c1ccccc1OCCO)N1[C@H](c3ccccc3)[C@H](c3ccccc3)OC(=O)[C@H]1[C@@H]2C(=O)N1CCN(c2ncccn2)CC1 | 28.9% (inactive) | – |
| O=C(Cc1nn[nH]n1)c1ccccc1O | 1.92% (inactive) | – |
| CN(C)C(=O)c1cccc(-c2ccc(C3[C@@H]4CN(Cc5nccs5)C[C@H]3N4)cc2)c1 (some centres not stated) | 51.7% (inactive) | – |
| Nc1cc2c(cc1Br)[nH]c(=O)c1ccccc12 | 17.5% (inactive) | – |
| N#Cc1cccc(-c2ccc(C3[C@@H]4CN(C(=O)Cc5ccncc5)C[C@H]3N4)cc2)c1 (some centres not stated) | 35.3% (inactive) | – |
| N#CC1=C(N)Oc2cc(N)ccc2C1c1cccc(F)c1 (configuration not stated) | -13.6% (inactive) | – |
| CCNC(=O)c1cc2c(c(-c3cccc(-c4cccc(OC)c4)c3)n1)[C@H](CCO)N([S@@](=O)C(C)(C)C)C2 | -17.3% (inactive) | – |
| O=C(CCCN1C(=O)/C(=C/c2ccccc2Cl)SC1=S)NNC(=O)c1ccc(Cl)cc1Cl | 12.7% (inactive) | – |
| CN(C)[C@@H]1CCC[C@@H]1OC(=O)C(c1ccccc1)c1ccccc1 | -11.6% (inactive) | – |
| COc1ccc(C2=Nn3c(nnc3-c3ccccc3F)SC2)cc1OC1CCOC1 (configuration not stated) | -7.39% (inactive) | – |
| COc1cc2oc3cc(C#Cc4ccc(N)cc4)ccc3c(=O)c2cc1OC | -4.88% (inactive) | – |
| O=C(NCc1ccccn1)c1ccc(CNS(=O)(=O)c2cccc(Cl)c2)cc1 | -15.8% (inactive) | – |
| Cc1noc(C)c1C(=O)Nc1sccc1C(N)=O | 18% (inactive) | – |
| CC(C)c1ccccc1NC(=O)COC(=O)CCN1C(=O)/C(=C\C=C\c2ccccc2)SC1=S | -10.7% (inactive) | – |
| N#C[C@H]1N[C@H](CO)[C@H]1c1ccc(C#Cc2ccccc2F)cc1 | – | -11.8% (inactive) |
| C[C@@H]1CN([C@@H](C)CO)C(=O)Cc2cc(NC(=O)C3CCCCC3)ccc2O[C@H]1CN(C)Cc1ccc(C(=O)Nc2ccccc2N)cc1 | 7.97% (inactive) | – |
| COc1ccc(S(=O)(=O)N=Nc2c(O)[nH]c3ccccc23)cc1 | 16.2% (inactive) | – |

| SMILES | activity change, negative = cytotoxicity (at 26 µM (top of the series)) | activity change, negative = cytotoxicity (at 23.5 µM (top of the series)) |
| --- | --- | --- |
| C[C@@H]1CN([C@@H](C)CO)S(=O)(=O)c2ccc(C#Cc3ccncc3)cc2O[C@H]1CN(C)C(=O)C1CCOCC1 | 19.2% (inactive) | – |
| Cc1ccc(NC(=O)COC(=O)c2ccc3c(c2)OCO3)cc1S(=O)(=O)N1CCCCC1 | -15.5% (inactive) | – |
| CC(C)(C)c1ccc(Oc2ccc(N)cn2)cc1 | -15.7% (inactive) | – |
| CCCc1nc2ccc(NC(=O)c3cccs3)cc2c(=O)n1Cc1ccccc1Cl | -2.41% (inactive) | – |
| COc1ccc(/C=C2\SC(=S)N(CCCC(=O)Nc3ccc(O)cc3)C2=O)cc1 | -27.6% (inactive) | – |
| CC(=O)ON=C1C=CC(=C(C#N)c2ccccc2)C=C1 | -28.3% (inactive) | – |
| COc1cc(OC)cc(-c2cc3nc(C)c(CCC(=O)O)c(C)n3n2)c1 | 11.4% (inactive) | – |
| O=c1[nH]c(=O)n(C2C[C@H](O)[C@@H](CO)O2)cc1C(F)(F)F (some centres not stated) | -9.97% (inactive) | – |
| O=C(NC1CCCC1)C(c1ccccc1)n1c(CSCCOc2ccccc2)nc2ccccc21 (configuration not stated) | -14.3% (inactive) | – |
| CC1(CCc2ccccc2)NC(=O)N(CC(=O)N2CC(=O)Nc3ccccc32)C1=O (configuration not stated) | -7.05% (inactive) | – |
| C[C@H](CO)N1C[C@H](C)[C@H](CN(C)Cc2ccc(Oc3ccccc3)cc2)Oc2ccc(NC(=O)CCCCCC(=O)Nc3ccccc3N)cc2CC1=O | -19.4% (inactive) | – |
| C[C@@H]1CN([C@H](C)CO)S(=O)(=O)c2ccc(C#Cc3ccncc3)cc2O[C@@H]1CN(C)C(=O)Nc1ccc2c(c1)OCO2 | -4.95% (inactive) | – |
| C[C@@H]1CN([C@@H](C)CO)C(=O)c2cccc(NC(=O)Nc3cccc4ccccc34)c2O[C@@H]1CN(C)Cc1ccc(C(=O)Nc2ccccc2N)cc1 | – | -11.5% (inactive) |
| O=C(O)c1ccc2cc(-c3ccccc3)[nH]c2c1 | -28.5% (inactive) | – |
| COc1ccc(C(=O)Nc2cccc(C(=O)N/N=C/c3ccc(OC)cc3OC)c2)cc1 | -15.7% (inactive) | – |
| CCOc1ccccc1CNC(=O)c1ccc(Sc2ccc(Cl)cc2)c(NC(C)=O)c1 | -4.6% (inactive) | – |
| C[C@@H]1CCCCO[C@@H](CN(C)C(=O)Cc2ccccc2)[C@@H](C)CN([C@@H](C)CO)C(=O)c2cc(NS(=O)(=O)c3ccc(F)cc3)ccc2O1 | 4.58% (inactive) | – |
| CCCCOc1ccc(NC(=O)C(=O)NCCCn2ccnc2)cc1 | -3.53% (inactive) | – |
